# In PubChem BioAssay AID1259407 (Chemical Carcinogenesis Research Information System (CCRIS), 2018):
# Calls of active or inactive are those of the source. The rule behind the calls is not given here.
# Tested on: CCRIS mutagenicity, Ames/micronucleus/aberration tests
# Assay: CCRIS mutagenicity studies
structure (smiles),measurement,setting,value
NCCNCCN,mutagenic call,"Test System: AMES SALMONELLA TYPHIMURIUM, Strain/Indicator: TA98, Metabolic Activation: HAMSTER, LIVER, S-9, AROCLOR 1254 (10%), Method: PREINCUBATION",inactive; negative
same,mutagenic call,"Test System: AMES SALMONELLA TYPHIMURIUM, Strain/Indicator: TA98, Metabolic Activation: NONE, Method: PREINCUBATION",inactive; negative
same,mutagenic call,"Test System: AMES SALMONELLA TYPHIMURIUM, Strain/Indicator: TA98, Metabolic Activation: NONE, Method: STANDARD PLATE",inactive; negative
same,mutagenic call,"Test System: AMES SALMONELLA TYPHIMURIUM, Strain/Indicator: TA98, Metabolic Activation: RAT LIVER S-9, PHENOBARBITAL AND BETA-NAPHTHOFLAVONE, Method: PREINCUBATION",inactive; negative
same,mutagenic call,"Test System: AMES SALMONELLA TYPHIMURIUM, Strain/Indicator: TA98, Metabolic Activation: RAT, LIVER, S-9, AROCLOR 1254 (10%), Method: PREINCUBATION",inactive; negative
same,mutagenic call,"Test System: AMES SALMONELLA TYPHIMURIUM, Strain/Indicator: TA98, Metabolic Activation: RAT, LIVER, S-9, AROCLOR 1254, Method: STANDARD PLATE",inactive; negative
same,mutagenic call,"Test System: AMES SALMONELLA TYPHIMURIUM, Strain/Indicator: TA98, Metabolic Activation: RAT, LIVER, S-9, PCB, Method: PREINCUBATION",inactive; negative
same,mutagenic call,"Test System: AMES SALMONELLA TYPHIMURIUM, Strain/Indicator: TA100, Metabolic Activation: HAMSTER, LIVER, S-9, AROCLOR 1254 (10%), Method: PREINCUBATION",inactive; negative
same,mutagenic call,"Test System: AMES SALMONELLA TYPHIMURIUM, Strain/Indicator: TA100, Metabolic Activation: NONE, Method: PREINCUBATION",inactive; negative
same,mutagenic call,"Test System: AMES SALMONELLA TYPHIMURIUM, Strain/Indicator: TA100, Metabolic Activation: NONE, Method: STANDARD PLATE",inactive; negative
same,mutagenic call,"Test System: AMES SALMONELLA TYPHIMURIUM, Strain/Indicator: TA100, Metabolic Activation: RAT LIVER S-9, PHENOBARBITAL AND BETA-NAPHTHOFLAVONE, Method: PREINCUBATION",inactive; negative
same,mutagenic call,"Test System: AMES SALMONELLA TYPHIMURIUM, Strain/Indicator: TA100, Metabolic Activation: RAT, LIVER, S-9, AROCLOR 1254 (10%), Method: PREINCUBATION",inactive; negative
same,mutagenic call,"Test System: AMES SALMONELLA TYPHIMURIUM, Strain/Indicator: TA100, Metabolic Activation: RAT, LIVER, S-9, AROCLOR 1254, Method: STANDARD PLATE",inactive; negative
same,mutagenic call,"Test System: AMES SALMONELLA TYPHIMURIUM, Strain/Indicator: TA100, Metabolic Activation: RAT, LIVER, S-9, PCB, Method: PREINCUBATION",inactive; negative
same,mutagenic call,"Test System: AMES SALMONELLA TYPHIMURIUM, Strain/Indicator: TA1535, Metabolic Activation: HAMSTER, LIVER, S-9, AROCLOR 1254 (10%), Method: PREINCUBATION",inactive; negative
same,mutagenic call,"Test System: AMES SALMONELLA TYPHIMURIUM, Strain/Indicator: TA1535, Metabolic Activation: NONE, Method: PREINCUBATION",inactive; negative
same,mutagenic call,"Test System: AMES SALMONELLA TYPHIMURIUM, Strain/Indicator: TA1535, Metabolic Activation: NONE, Method: STANDARD PLATE",inactive; negative
same,mutagenic call,"Test System: AMES SALMONELLA TYPHIMURIUM, Strain/Indicator: TA1535, Metabolic Activation: RAT LIVER S-9, PHENOBARBITAL AND BETA-NAPHTHOFLAVONE, Method: PREINCUBATION",inactive; negative
same,mutagenic call,"Test System: AMES SALMONELLA TYPHIMURIUM, Strain/Indicator: TA1535, Metabolic Activation: RAT, LIVER, S-9, AROCLOR 1254 (10%), Method: PREINCUBATION",inactive; negative
same,mutagenic call,"Test System: AMES SALMONELLA TYPHIMURIUM, Strain/Indicator: TA1535, Metabolic Activation: RAT, LIVER, S-9, AROCLOR 1254, Method: STANDARD PLATE",inactive; negative
same,mutagenic call,"Test System: AMES SALMONELLA TYPHIMURIUM, Strain/Indicator: TA1537, Metabolic Activation: HAMSTER, LIVER, S-9, AROCLOR 1254 (10%), Method: PREINCUBATION",inactive; negative
same,mutagenic call,"Test System: AMES SALMONELLA TYPHIMURIUM, Strain/Indicator: TA1537, Metabolic Activation: NONE, Method: PREINCUBATION",inactive; negative
same,mutagenic call,"Test System: AMES SALMONELLA TYPHIMURIUM, Strain/Indicator: TA1537, Metabolic Activation: NONE, Method: STANDARD PLATE",inactive; negative
same,mutagenic call,"Test System: AMES SALMONELLA TYPHIMURIUM, Strain/Indicator: TA1537, Metabolic Activation: RAT LIVER S-9, PHENOBARBITAL AND BETA-NAPHTHOFLAVONE, Method: PREINCUBATION",inactive; negative
same,mutagenic call,"Test System: AMES SALMONELLA TYPHIMURIUM, Strain/Indicator: TA1537, Metabolic Activation: RAT, LIVER, S-9, AROCLOR 1254 (10%), Method: PREINCUBATION",inactive; negative
same,mutagenic call,"Test System: AMES SALMONELLA TYPHIMURIUM, Strain/Indicator: TA1537, Metabolic Activation: RAT, LIVER, S-9, AROCLOR 1254, Method: STANDARD PLATE",inactive; negative
same,mutagenic call,"Test System: AMES SALMONELLA TYPHIMURIUM, Strain/Indicator: TA1538, Metabolic Activation: NONE, Method: STANDARD PLATE",inactive; negative
same,mutagenic call,"Test System: AMES SALMONELLA TYPHIMURIUM, Strain/Indicator: TA1538, Metabolic Activation: RAT, LIVER, S-9, AROCLOR 1254, Method: STANDARD PLATE",inactive; negative
same,mutagenic call,"Test System: CHINESE HAMSTER OVARY, Strain/Indicator: CHO (HGPRT)/6-THIOGUANINE, Metabolic Activation: NONE",inactive; negative
same,mutagenic call,"Test System: CHINESE HAMSTER OVARY, Strain/Indicator: CHO (HGPRT)/6-THIOGUANINE, Metabolic Activation: RAT, LIVER, S-9, AROCLOR 1254",inactive; negative
same,mutagenic call,"Test System: E.COLI, Strain/Indicator: WP2UVRA/PKM101, Metabolic Activation: NONE, Method: PREINCUBATION",inactive; negative
same,mutagenic call,"Test System: E.COLI, Strain/Indicator: WP2UVRA/PKM101, Metabolic Activation: RAT LIVER S-9, PHENOBARBITAL AND BETA-NAPHTHOFLAVONE, Method: PREINCUBATION",inactive; negative
same,mutagenic call,"Test System: UDS RAT HEPATOCYTES, Strain/Indicator: THY INCORP, Metabolic Activation: NONE, Method: SCINTILLATION SPECTROMETRY",inactive; negative
C1=Cc2cc3cccc4c5ccccc5c5ccc1c2c5c34,mutagenic call,"Test System: AMES SALMONELLA TYPHIMURIUM, Strain/Indicator: TA98, Metabolic Activation: RAT, LIVER, S-9, AROCLOR 1254 (0.14 OR 0.41 MG), Method: STANDARD PLATE",active; positive
same,mutagenic call,"Test System: AMES SALMONELLA TYPHIMURIUM, Strain/Indicator: TA100, Metabolic Activation: RAT, LIVER, S-9, AROCLOR 1254 (0.14 OR 0.41 MG), Method: STANDARD PLATE",active; positive
same,mutagenic call,"Test System: AMES SALMONELLA TYPHIMURIUM, Strain/Indicator: TA104, Metabolic Activation: RAT, LIVER, S-9, AROCLOR 1254 (0.14 OR 0.41 MG), Method: STANDARD PLATE",active; positive
same,mutagenic call,"Test System: AMES SALMONELLA TYPHIMURIUM, Strain/Indicator: TA1535, Metabolic Activation: RAT, LIVER, S-9, AROCLOR 1254 (0.14 OR 0.41 MG), Method: STANDARD PLATE",inactive; negative
same,mutagenic call,"Test System: AMES SALMONELLA TYPHIMURIUM, Strain/Indicator: TA1537, Metabolic Activation: RAT, LIVER, S-9, AROCLOR 1254 (0.14 OR 0.41 MG), Method: STANDARD PLATE",active; positive
same,mutagenic call,"Test System: AMES SALMONELLA TYPHIMURIUM, Strain/Indicator: TA1538, Metabolic Activation: RAT, LIVER, S-9, AROCLOR 1254 (0.14 OR 0.41 MG), Method: STANDARD PLATE",active; positive
COc1cc(O)c2c(=O)c3cc(OC)ccc3oc2c1,mutagenic call,"Test System: AMES SALMONELLA TYPHIMURIUM, Strain/Indicator: TA97, Metabolic Activation: RAT, LIVER, S-9, PHENOBARBITAL AND 5,6-BENZOFLAVONE, Method: PREINCUBATION",active; positive
same,mutagenic call,"Test System: AMES SALMONELLA TYPHIMURIUM, Strain/Indicator: TA98, Metabolic Activation: RAT, LIVER, S-9, PHENOBARBITAL AND 5,6-BENZOFLAVONE, Method: PREINCUBATION",inactive; negative
same,mutagenic call,"Test System: AMES SALMONELLA TYPHIMURIUM, Strain/Indicator: TA100, Metabolic Activation: RAT, LIVER, S-9, PHENOBARBITAL AND 5,6-BENZOFLAVONE, Method: PREINCUBATION",active; positive
same,mutagenic call,"Test System: AMES SALMONELLA TYPHIMURIUM, Strain/Indicator: TA2637, Metabolic Activation: RAT, LIVER, S-9, PHENOBARBITAL AND 5,6-BENZOFLAVONE, Method: PREINCUBATION",active; positive
